Broadly, the EC50 is the concentration needed to bring the measured effect to its halfway point. For orientation: IC50 means the concentration that inhibits the measured activity by half.

We go through 20 compounds from US11046686B2, “Thiadiazole IRAK4 compounds” (Gilead Sciences, Inc., priority 2018, dated 2021).

One test concerns TNFα. The test is described as follows: IRAK4 Monocyte TNFα Cell Based Assay. Details: species or system human. The essentials:
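Human monocytes (5,000/well) pretreated with compound 1 h at 37 °C (0.1% DMSO final), then stimulated with 50 pg/ml LPS for 4 h. Secreted TNFα measured by TR-FRET two-antibody detection after overnight incubation at room temperature; % control relative to unstimulated and LPS-stimulated wells.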

The next test deals with IRAK4 enzyme (Homo sapiens (Human), UniProt Q9NWZ3). Kind of test: IRAK4 Biochemical Assay (TR-FRET, STK1 KinEASE). The protocol: IRAK4 enzyme (Carna Biosciences, Chuo-ku, Kobe, Japan) activity was measured by detecting phosphorylated peptide substrate formation using an antibody against the phosphorylated peptide substrate. This is a time-resolved fluorescence resonance energy transfer (TR-FRET) immunoassay, based on the STK1 KinEASE Assay (Cisbio, Bedford, Mass.). The assay was designed as a simple two-step, endpoint assay (a 5 μl enzyme reaction followed by 5 μl stop and detect Solution) performed in ProxiPlate-384 Plus plates (Perkin Elmer, Waltham, Mass.). […] Compounds diluted in DMSO were spotted into 384 well plates using a Labcyte® Echo 550 Liquid Handling System prior to addition of IRAK4 enzyme and peptide substrate. Reaction solutions were delivered using a Multi-Flo (Bio-Tek Instruments). The enzyme and peptide solution was incubated with compound for 15 minutes at room temp before the reaction was initiated by the addition of ATP. The standard 5 μl reaction mixture contained 500 μM ATP, […] peptide (STK1 Peptide), 0.75 nM of IRAK4 in reaction buffer (50 mM HEPES, pH 7.0, 0.02% NaN3, 0.01% BSA, 0.1 mM Orthovanadate, 5 mM […], 0.025% NP-40, 1 mM DTT). After 120 min of incubation at room temperature, 5 μl of Stop and Detect Solution (1:100 Cryptate labeled anti-phosphorylated peptide antibody solution and 125 nM Tracer in a 50 mM HEPES pH 7.0 detection buffer containing sufficient EDTA) was added. The plate was then further incubated for 60 minutes at room temperature and read on Envision 2103 Multilabeled reader (PerkinElmer) with excitation/emission/FRET emission at 340 nm/615 nm665 nm, respectively. Fluorescence intensities at 615 nm and 665 nm emission wavelengths were expressed as aratio (665 nm/615 nm). Percentage of inhibition was calculated as below: % Inhibition=100×(Ratiosample−Ratio0% Inhibition)/(Ratio100% Inhibition−Ratio0% Inhibition)
The 0% inhibition value comes from control wells lacking inhibitor.
(Time-resolved FRET reads energy transfer from a long-lived donor to a nearby acceptor.)

Setting [1] is: Homo sapiens, Monocyte, read-out: EC50 MONO TNF HTRF.
Setting [2] is: Homo sapiens, Monocyte, human monocytes, second part of Table 2, compounds 33-343, unit inferred, read-out: EC50 MONO TNF HTRF.
Where [3] appears, read: Homo sapiens, Monocyte, human monocytes, LPS stimulated, compounds 1-32, read-out: EC50 TNF.
Setting [4] is: compounds 1-32, read-out: IC50 HTRF.

Like-named read-outs stand apart in the source and are kept apart here.

Chain of IRAK4 enzyme (Q9NWZ3 whole entry): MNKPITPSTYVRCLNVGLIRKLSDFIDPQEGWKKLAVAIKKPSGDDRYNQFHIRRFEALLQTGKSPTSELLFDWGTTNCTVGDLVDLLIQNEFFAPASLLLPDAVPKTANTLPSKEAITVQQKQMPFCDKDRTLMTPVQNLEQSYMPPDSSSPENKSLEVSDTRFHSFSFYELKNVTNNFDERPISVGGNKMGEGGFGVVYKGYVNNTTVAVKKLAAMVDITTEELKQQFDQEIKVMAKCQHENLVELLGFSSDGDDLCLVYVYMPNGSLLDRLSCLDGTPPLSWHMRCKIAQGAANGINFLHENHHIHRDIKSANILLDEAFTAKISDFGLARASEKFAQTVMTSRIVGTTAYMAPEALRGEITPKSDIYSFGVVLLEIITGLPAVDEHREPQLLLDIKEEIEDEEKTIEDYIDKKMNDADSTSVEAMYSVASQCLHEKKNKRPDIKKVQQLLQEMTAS

Turning to `CC(C)Nc1cc(-c2ccc3cc(C#N)cnn23)ncc1-c1nnc(N2C3CNCC2C3)s1` [Compound 274, 7-(5-(5-(3,6-diazabicyclo[3.1.1]heptan-6-yl)-1,3,4-thiadiazol-2-yl)-4-(isopropylamino)pyridin-2-yl)pyrrolo[1,2-b]pyridazine-3-carbonitrile], the EC50 in the test with TNFα (setting [1]) came to 41 nM. For the same compound, at IRAK4 enzyme, the IC50 was determined as 1.59 nM.

Regarding `CC(C)Nc1cc(-c2ccc3cc(C#N)cnn23)ncc1-c1nnc(N2C3CC2CN(C(=O)C(C)(C)O)C3)s1` [Compound 275, 7-(5-(5-(3-(2-hydroxy-2-methylpropanoyl)-3,6-diazabicyclo[3.1.1]heptan-6-yl)-1,3,4-thiadiazol-2-yl)-4-(isopropylamino)pyridin-2-yl)pyrrolo[1,2-b]pyridazine-3-carbonitrile], in the test with TNFα (setting [2]), the EC50 was 6.4 nM. The compound also registered an IC50 against IRAK4 enzyme of 0.78 nM.

Take `CC(C)Nc1cc(-c2ccc3cc(C#N)cnn23)ncc1-c1nnc(N2C3CC2CN(C(=O)N2CCN(C)CC2)C3)s1` [Compound 277, 7-(4-(isopropylamino)-5-(5-(3-(4-methylpiperazine-1-carbonyl)-3,6-diazabicyclo[3.1.1]heptan-6-yl)-1,3,4-thiadiazol-2-yl)pyridin-2-yl)pyrrolo[1,2-b]pyridazine-3-carbonitrile]: the EC50 in the test with TNFα (setting [1]) is 11.3 nM. The same compound gave an IC50 against IRAK4 enzyme of 0.93 nM.

Turning to `CC(=O)NC12CCC(c3nnc(-c4cnc(-c5ccc6cc(C#N)cnn56)cc4NC(C)C)s3)(CC1)CC2` [Compound 280, N-(4-(5-(6-(3-cyanopyrrolo[1,2-b]pyridazin-7-yl)-4-(isopropylamino)pyridin-3-yl)-1,3,4-thiadiazol-2-yl)bicyclo[2.2.2]octan-1-yl)acetamide], the EC50 in the test on TNFα (setting [2]) came to 7.4 nM. Further, on IRAK4 enzyme, the IC50 came out at 1.03 nM.

Take `CNC(=O)[C@@H]1CCCN1c1nnc(-c2cnc(-c3ccc4cc(C#N)cnn34)cc2NC2COC2)s1` [Compound 332]: the EC50 in the test with TNFα (human monocytes, second part of Table 2, compounds 33-343, unit inferred, read-out: EC50 MONO TNF HTRF) worked out at 435 nM. Further, the IC50 on IRAK4 enzyme (second part of Table 2, compounds 33-343, unit inferred, read-out: IC50 IRAK4-HTBS) came out at 1.61 nM.

For `CC(C)Nc1cc(-c2ccc3cc(C#N)cnn23)ncc1-c1nnc(CCNC(=O)OC(C)(C)C)s1` [Example 1, tert-butyl (2-(5-(6-(3-cyanopyrrolo[1,2-b]pyridazin-7-yl)-4-(isopropylamino)pyridin-3-yl)-1,3,4-thiadiazol-2-yl)ethyl)carbamate], in the test with TNFα (setting [3]), the EC50 was 309 nM. The IC50 at IRAK4 enzyme (setting [4]) turned out to be 1.5 nM.

As to `CC(=O)N[C@H]1CC[C@H](c2nnc(-c3cnc(-c4ccc5cc(C#N)cnn45)cc3N[C@H]3CC[C@H](c4nnc(C(F)F)o4)CC3)s2)CC1` [Example 2, N-((1R,4r)-4-(5-(6-(3-cyanopyrrolo[1,2-b]pyridazin-7-yl)-4-(((1r,4R)-4-(5-(difluoromethyl)-1,3,4-oxadiazol-2-yl)cyclohexyl)amino)pyridin-3-yl)-1,3,4-thiadiazol-2-yl)cyclohexyl)acetamide], the EC50 in the test on TNFα (setting [3]) is 8 nM. In addition, the IC50 at IRAK4 enzyme (setting [4]) was determined as 1 nM.

Turning to `CC(=O)N[C@H]1CC[C@H](c2nnc(-c3cnc(-c4ccc5cc(C#N)cnn45)cc3NC3(C)COC3)s2)CC1` [Example 3, N-((1r,4r)-4-(5-(6-(3-cyanopyrrolo[1,2-b]pyridazin-7-yl)-4-((3-methyloxetan-3-yl)amino)pyridin-3-yl)-1,3,4-thiadiazol-2-yl)cyclohexyl)acetamide], the EC50 in the test with TNFα (setting [3]) was found to be 15 nM. The IC50 at IRAK4 enzyme (setting [4]) was less than 1 nM.

`CC(C)Nc1cc(-c2ccc3cc(C#N)cnn23)ncc1-c1nnc(N2CCC3(CC2)COC3)s1` [Example 4, 7-(5-(5-(2-oxa-7-azaspiro[3.5]nonan-7-yl)-1,3,4-thiadiazol-2-yl)-4-(isopropylamino)pyridin-2-yl)pyrrolo[1,2-b]pyridazine-3-carbonitrile]: in the test on TNFα (setting [3]), the EC50 came to 23 nM. The 50% inhibitory concentration (IC50) on IRAK4 enzyme (setting [4]) came to 1 nM.

Regarding `CC(C)Nc1cc(-c2ccc3cc(C#N)cnn23)ncc1-c1nnc(CO)s1` [Example 5, 7-(5-(5-(hydroxymethyl)-1,3,4-thiadiazol-2-yl)-4-(isopropylamino)pyridin-2-yl)pyrrolo[1,2-b]pyridazine-3-carbonitrile], the EC50 in the test on TNFα (setting [3]) stood at 76 nM. For the same compound, the IC50 on IRAK4 enzyme (setting [4]) turned out to be 1 nM.

Take `CC(=O)NC1CCN(c2nnc(-c3cnc(-c4ccc5cc(C#N)cnn45)cc3NC(C)C)s2)CC1` [Example 6, N-(1-(5-(6-(3-cyanopyrrolo[1,2-b]pyridazin-7-yl)-4-(isopropylamino)pyridin-3-yl)-1,3,4-thiadiazol-2-yl)piperidin-4-yl)acetamide]: the EC50 in the test with TNFα (setting [3]) worked out at 19 nM. Besides, on IRAK4 enzyme (setting [4]), the IC50 was less than 1 nM.

As to `CC(C)Nc1cc(-c2ccc3cc(C#N)cnn23)ncc1-c1nnc(-c2ccc(N)cc2)s1` [Example 7, 7-(5-(5-(4-aminophenyl)-1,3,4-thiadiazol-2-yl)-4-(isopropylamino)pyridin-2-yl)pyrrolo[1,2-b]pyridazine-3-carbonitrile], the EC50 with TNFα (setting [3]) is greater than 10000 nM. Besides, the IC50 at IRAK4 enzyme (setting [4]) is 9 nM.

In the case of `CC(=O)N1CCN(C(=O)c2nnc(-c3cnc(-c4ccc5cc(C#N)cnn45)cc3NC(C)C)s2)CC1` [Example 10, 7-(5-(5-(4-acetylpiperazine-1-carbonyl)-1,3,4-thiadiazol-2-yl)-4-(isopropylamino)pyridin-2-yl)pyrrolo[1,2-b]pyridazine-3-carbonitrile], the EC50 with TNFα (setting [3]) worked out at 157 nM. Also, at IRAK4 enzyme (setting [4]), the IC50 was less than 1 nM.

As for `CC(C)Nc1cc(-c2ccc3cc(C#N)cnn23)ncc1-c1nnc(C(=O)NCCCN2CCCCC2)s1` [Example 11, 5-(6-(3-cyanopyrrolo[1,2-b]pyridazin-7-yl)-4-(isopropylamino)pyridin-3-yl)-N-(3-(piperidin-1-yl)propyl)-1,3,4-thiadiazole-2-carboxamide], the EC50 in the test with TNFα (setting [3]) was determined as 1170 nM. Further, the IC50 on IRAK4 enzyme (setting [4]) was less than 1 nM.

For the compound `CC(=O)N[C@H]1CCN(C(=O)c2nnc(-c3cnc(-c4ccc5cc(C#N)cnn45)cc3NC(C)C)s2)C1` [Example 12, (S)-N-(1-(5-(6-(3-cyanopyrrolo[1,2-b]pyridazin-7-yl)-4-(isopropylamino)pyridin-3-yl)-1,3,4-thiadiazole-2-carbonyl)pyrrolidin-3-yl)acetamide], the EC50 in the test on TNFα (setting [3]) stood at 9 nM. The IC50 at IRAK4 enzyme (setting [4]) is less than 1 nM.

Consider `CC(=O)N[C@@H]1CCN(C(=O)c2nnc(-c3cnc(-c4ccc5cc(C#N)cnn45)cc3NC(C)C)s2)C1` [Example 13, (R)-N-(1-(5-(6-(3-cyanopyrrolo[1,2-b]pyridazin-7-yl)-4-(isopropylamino)pyridin-3-yl)-1,3,4-thiadiazole-2-carbonyl)pyrrolidin-3-yl)acetamide], for which the EC50 with TNFα (setting [3]) was 23 nM. Moreover, the IC50 at IRAK4 enzyme (setting [4]) was less than 1 nM.

Turning to `CC(C)Nc1cc(-c2ccc3cc(C#N)cnn23)ncc1-c1nnc(C(=O)NC[C@@H](F)C(C)(C)O)s1` [Example 14, (R)-5-(6-(3-cyanopyrrolo[1,2-b]pyridazin-7-yl)-4-(isopropylamino)pyridin-3-yl)-N-(2-fluoro-3-hydroxy-3-methylbutyl)-1,3,4-thiadiazole-2-carboxamide], the EC50 in the test with TNFα (setting [3]) turned out to be 79 nM. For the same compound, the IC50 on IRAK4 enzyme (setting [4]) is less than 1 nM.

As for `CNC(=O)c1nnc(-c2cnc(-c3ccc4cc(C#N)cnn34)cc2NC(C)C)s1` [Example 15, 5-(6-(3-cyanopyrrolo[1,2-b]pyridazin-7-yl)-4-(isopropylamino)pyridin-3-yl)-N-methyl-1,3,4-thiadiazole-2-carboxamide], the EC50 in the test on TNFα (setting [3]) stood at 3390 nM. The IC50 on IRAK4 enzyme (setting [4]) is less than 1 nM.

With `CC(C)Nc1cc(-c2ccc3cc(C#N)cnn23)ncc1-c1nnc(C(=O)N2CC[C@H](O)C2)s1` [Example 16, (S)-7-(5-(5-(3-hydroxypyrrolidine-1-carbonyl)-1,3,4-thiadiazol-2-yl)-4-(isopropylamino)pyridin-2-yl)pyrrolo[1,2-b]pyridazine-3-carbonitrile], in the test on TNFα (setting [3]), the EC50 worked out at 35 nM. The IC50 on IRAK4 enzyme (setting [4]) was less than 1 nM.

With `CC(C)Nc1cc(-c2ccc3cc(C#N)cnn23)ncc1-c1nnc(C(=O)N2CC[C@@H](O)C2)s1` [Example 17, (R)-7-(5-(5-(3-hydroxypyrrolidine-1-carbonyl)-1,3,4-thiadiazol-2-yl)-4-(isopropylamino)pyridin-2-yl)pyrrolo[1,2-b]pyridazine-3-carbonitrile], the EC50 in the test with TNFα (setting [3]) was found to be 55 nM. In addition, the IC50 on IRAK4 enzyme (setting [4]) turned out to be 1 nM.
